Reference: patent US20240352072A1, “NOVEL COMPOSITIONS AND METHODS FOR TREATING CORONAVIRUS INFECTIONS” (priority 2021, published 2024)
Where two headings read alike, the source gives them in different places. Where no end group is shown, it is not given here. [ ]: non-standard residue; d: D form. The star is where a group is joined. Lys(Me2) = CN(C)CCCC[C@H](N)C(=O)O; Myristyl = CCCCCCCCCCCCCC*

Key:
ACE2, LSD1 = type: cell-based; details: Caco-2 cells
[1] = test system: ACE2, SARS-CoV-2 nucleocapsid and Spike proteins; type: cell-based
ACE2-importin complex = type: binding
ACE2unmod and IMPα1 = target: T1, ACE2unmod and IMPα1 (Homo sapiens, UniProt P52292); type: cell-based; design: dose or concentration left out as unconfirmed; details: H1299 cells
T1 construct: endogenous in cells; host or cells: H1299

SARS-CoV-2 [2] = test system: SARS-CoV-2; design: species or system golden Syrian Hamsters; details: hamster, in vivo
SARS-CoV-2 [3] = test system: SARS-CoV-2; design: species or system golden Syrian Hamsters; details: hamster, in vivo; remark: listed apart in the source
SARS-CoV-2 Spike protein [4] = test system: SARS-CoV-2 Spike protein; design: species or system golden Syrian Hamsters; details: hamster, in vivo
[5] = test system: SARS-Cov-2 induced lung pathology; design: species or system golden Syrian Hamsters; details: hamster, in vivo
perforin and CD3 = type: in vivo, golden Syrian Hamsters; details: hamster, IP or IV routes
[6] = Hamster tolerance (animal safety) study; type: in vivo, golden Syrian Hamsters; details: escalating IP doses
Procedure: Female golden Syrian Hamsters (6-8 weeks) were obtained from Janiver Labs (Le Genest-Saint-Isle, France) and studies conducted by Oncodesign® Biotechnology (Dijon Cedex, France). For tolerance experiments, animals (3 per group) received escalating doses of P604 ACE2 peptide inhibitor or ACE2i peptide via intraperitoneal injection. Doses were escalated daily (day 1: 25 mg/kg, day 2: 50 mg/kg, day 3: 100 mg/kg) and animals monitored prior to culling on day 4. Animal viability, behaviour and rectal temperature were recorded every 2 hours over a 6 hour period post-administration and body weights were measured daily. For P604 ACE2 peptide inhibitor efficacy studies, animals (8 per group) were treated with vehicle (IP, daily day 0, 1 and 2) (Sodium chloride 0.9%, Osalia, Paris, France) or P604 ACE2 peptide inhibitor over a 2-day period via intravenous (IV, 15 mg/kg, day 0 once and day 1 twice, 8 hours apart) or intraperitoneal (IP, 100 mg/kg, daily Day 0, 1, 2) injection. For P604 ACE2 peptide inhibitor efficacy studies, animals were treated with vehicle or P604 ACE2 peptide inhibitor (30 mg/kg, IN, twice daily, Day 0, 1 8 hours apart).

LSD1 [7] = target: T2, LSD1 (Homo sapiens, UniProt O60341)
SARS-CoV-2 [8] = type: cell-based
SARS-CoV-2 [9] = type: cell-based; remark: listed apart in the source
[10] = target: ACE2 and SARS-CoV-2 Spike (Severe acute respiratory syndrome coronavirus 2, UniProt P0DTC2); type: cell-based
SARS-CoV-2 spike protein [11] = target: T3, SARS-CoV-2 spike protein (Severe acute respiratory syndrome coronavirus 2, UniProt P0DTC2); type: cell-based
T3 construct: spike protein 51 (Glu14-Ser680) containing a poly-histidine tag at the C-terminus; poly-histidine (C)

LSD1 [12] = target: T2, LSD1; experiment: In vitro LSD1 activity assay (demethylation of ACE2 peptide at lysine 31); type: biochemical

## Myristyl-TGIRDRKKKNKARS-OH (SMILES CCCCCCCCCCCCCCN[C@H](C(=O)NCC(=O)N[C@H](C(=O)N[C@@H](CCCNC(=N)N)C(=O)N[C@@H](CC(=O)O)C(=O)N[C@@H](CCCNC(=N)N)C(=O)N[C@@H](CCCCN)C(=O)N[C@@H](CCCCN)C(=O)N[C@@H](CCCCN)C(=O)N[C@@H](CC(N)=O)C(=O)N[C@@H](CCCCN)C(=O)N[C@@H](C)C(=O)N[C@@H](CCCNC(=N)N)C(=O)N[C@@H](CO)C(=O)O)[C@@H](C)CC)[C@@H](C)O) [P604]
ACE2, LSD1
  PCC(r) of LSD1 and ACE2 (co-localisation): significantly abrogated
ACE2, LSD1; 25 mM/50 mM
  ACE2 expression on the cell surface: de-stabilizes ACE2 expression on the cell surface
  cell surface LSD1 expression: reducing cell surface LSD1 expression
[1]
  expression of Spike protein of SARS-CoV-2: significantly inhibit and downregulate
  expression of host ACE2: significantly inhibit and downregulate
  expression of nucleocapsid protein of SARS-CoV-2: significantly inhibit and downregulate
ACE2-importin complex
  inhibition of the ACE2-importin complex in vitro: directly inhibiting the ACE2-importin complex
ACE2unmod and IMPα1
  ACE2unmod-IMP1 interaction (DUOLINK): significantly all but abrogated
SARS-CoV-2 [2]
  viral RNA in the lungs: Significant reductions
SARS-CoV-2 [2]; ip, 100 mg/kg
  decrease in viral load normalized to the vehicle group: 96%
SARS-CoV-2 [2]; iv, 15 mg/kg
  decrease in viral load normalized to the vehicle group: 88%
SARS-CoV-2 [3]
  lung infectious titers (TCID50 assay): reduced
SARS-CoV-2 Spike protein [4]
  overall intensity of Spike protein signal in positive cells: significantly reduced
  population of cells in bronchial lung sections positive for SARS-CoV-2 spike protein: significantly reduced
[5]
  changes in the bronchioles or vessels (H&E): minimal changes
  mean cumulative histopathological scores: substantially lower than the vehicle group
Perforin and CD3
  CD3+ cells expressing perforin in lung: induce more CD3+ cells to express perforin
  cells positive for perforin in lung: significantly induce higher cells positive for perforin
[6]
  toxicity in animal safety studies: minimal toxicity

## NNCCc1ccccc1 [phenelzine]
LSD1 [7]
  effect on ACE2 transcription: minimal effect
  expression and co-localization of LSD1 with ACE2 and TMRPSS2: abrogated

## STIEEQAKTFLDK [ACE2-02]
SARS-CoV-2 [8]
  decrease of viral RNA in infected cells: 2 fold
  reduction of infection (qRT-PCR) in cell culture supernatants: 4.6 fold
SARS-CoV-2 [9]
  reduction in viral load (infectious viral titers, TCID50): 3.2 fold
[10]
  interaction between ACE2 and spike protein (ACE2/spike complexes at the cell surface): further disrupted
SARS-CoV-2 spike protein [11]
  inhibition of Spike protein binding to the cell surface: significantly inhibit

## QAKTFLD{Lys(Me2)}FNHEAED (QAKTFLD[Lys(Me2)]FNHEAED) [ACE2me2]
LSD1 [12]
  de-methylation at lysine 31 by LSD1: efficiently de-methylated
